Among the data in US8895504B2, “Amylin derivatives” (priority 2008, dated 2014) are EC50 values, retold here.

Where a SMILES comes first, the peptide text is derived from it. Bridges are numbered along the chain shown (N, C = ends). The star is where a group is joined. C20 diacid = O=C(O)CCCCCCCCCCCCCCCCCCC(=O)*

For the test, the target named is T1, Amylin 3(a) receptor (human calcitonin receptor (CTa) and RAMP-3) (Homo sapiens, UniProt O60896+P30988).
T1 construct: expressed in transfected cells; host or cells: BHK570 cells, stably transfected with a CRE-luciferase reporter
The experiment in a line: Luciferase assay (III), BHK Amylin 3(a)//CRE-luc cells. In kind it is cell-based. Conditions: BHK cells with Amylin 3(a) receptor and CRE luciferase reporter, 4 hours incubation; read-out: Potency Luciferase. From the text:
It has previously been published (Poyner D R et al 2002, Pharmacological Reviews 54(2) 233-246) that activation of Amylin receptors (coexpression of Calcitonin receptor and receptor activity modifying peptides RAMPs) by Amylin leads to an increase in the intracellular concentration of cAMP. Consequently, transcription is activated at promoters containing multiple copies of the cAMP response element (CRE). It is thus possible to measure Amylin activity by use of a CRE luciferase reporter gene introduced into BHK cells also expressing an Amylin receptor.
2. Construction of an Amylin 3(a)/CRE-luc Cell Line
A BHK570 cell line stably transfected with the human calcitonin receptor (CTa) and a CRE-responsive luciferase reportergene. The cell line was further transfected with RAMP-3, using standard methods. This turns the Calcitonin receptor into an Amylin 3(a) receptor. Methotrexate, Neomycin, and Hygromycin are selection markers for luciferase, the Calcitonin receptor, and RAMP-3, respectively.
3. Amylin Luciferase Assay
To perform activity assays, BHK Amylin 3(a)//CRE-luc cells were seeded in white 96 well culture plates at a density of about 20,000 cells/well. The cells were in 100 μl growth medium (DMEM with 10% FBS, 1% Pen/Strep, 1 mM Na-pyruvate, 250 nM Methotrexate, 500 μg/ml Neomycin, and 400 μg/ml Hygromycin). After incubation overnight at 37° C. and 5% CO2, the growth medium was replaced by 50 μl/well assay medium (DMEM (without phenol red), Glumamax™, 10% FBS, and 10 mM Hepes, pH 7,4). Further, 50 μl/well of standard or sample in assay buffer were added. After 4 hours incubation at 37° C. and 5% CO2, the assay medium with standard or sample were removed and replaced by 100 μl/well PBS. Further, 100 μl/well LucLite™ was added. The plates were sealed and incubated at room temperature for 30 minutes. Finally, luminescence was measured on a TopCounter (Packard) in SPC (single photon counting) mode.

T1 sequence (O60896 24-148): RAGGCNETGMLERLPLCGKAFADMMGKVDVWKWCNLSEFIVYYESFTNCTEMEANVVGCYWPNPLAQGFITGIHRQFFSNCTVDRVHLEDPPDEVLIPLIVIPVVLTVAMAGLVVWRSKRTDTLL
T1 sequence (P30988 25-474): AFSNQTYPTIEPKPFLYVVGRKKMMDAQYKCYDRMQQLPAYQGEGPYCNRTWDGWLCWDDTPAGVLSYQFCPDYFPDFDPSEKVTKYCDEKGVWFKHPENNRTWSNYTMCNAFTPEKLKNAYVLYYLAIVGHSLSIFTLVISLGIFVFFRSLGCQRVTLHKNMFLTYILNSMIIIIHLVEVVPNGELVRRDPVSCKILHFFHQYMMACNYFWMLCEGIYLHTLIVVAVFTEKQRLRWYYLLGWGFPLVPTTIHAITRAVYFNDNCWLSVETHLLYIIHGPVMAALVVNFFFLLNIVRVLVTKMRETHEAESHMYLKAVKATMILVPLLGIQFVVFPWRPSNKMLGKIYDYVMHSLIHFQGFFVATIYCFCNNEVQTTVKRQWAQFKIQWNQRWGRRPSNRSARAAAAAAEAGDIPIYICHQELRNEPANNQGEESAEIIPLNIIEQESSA

For `CC[C@H](C)[C@H](NC(=O)[C@@H]1CCCN1C(=O)CNC(=O)[C@H](Cc1ccccc1)NC(=O)[C@H](CC(N)=O)NC(=O)[C@H](CC(N)=O)NC(=O)[C@H](CO)NC(=O)[C@H](CO)NC(=O)[C@H](Cc1c[nH]cn1)NC(=O)[C@H](Cc1c[nH]cn1)NC(=O)[C@H](CC(C)C)NC(=O)[C@H](Cc1ccccc1)NC(=O)[C@H](CC(N)=O)NC(=O)[C@H](C)NC(=O)[C@H](CC(C)C)NC(=O)[C@H](CCCNC(=N)N)NC(=O)[C@H](CCC(N)=O)NC(=O)[C@@H](NC(=O)[C@H](C)NC(=O)[C@@H]1CSSC[C@H](NC(=O)[C@H](CCCNC(=N)N)NC(=O)[C@H](CCCCN)NC(=O)[C@H](CCC(=O)O)NC(=O)CCCCCCCCCCCCCCCCCCC(=O)O)C(=O)N[C@@H](CC(N)=O)C(=O)N[C@@H]([C@@H](C)O)C(=O)N[C@@H](C)C(=O)N[C@@H]([C@@H](C)O)C(=O)N1)[C@@H](C)O)C(=O)N[C@@H](CC(C)C)C(=O)N1CCC[C@H]1C(=O)N1CCC[C@H]1C(=O)N[C@H](C(=O)N[C@@H](CC(N)=O)C(=O)N[C@H](C(=O)NCC(=O)N[C@@H](CO)C(=O)N[C@@H](CC(N)=O)C(=O)N[C@H](C(=O)N[C@@H](Cc1ccc(O)cc1)C(N)=O)[C@@H](C)O)C(C)C)[C@@H](C)O` [Example 8, N-alpha-[19-carboxynonadecanoyl]-Glu-Lys-[Arg1,His17]-pramlintide] ({C20 diacid}-EKRCNTATCATQRLANFLHHSSNNFGPILPPTNVGSNTY-NH2; disulfide 4-9), the EC50 stood at 0.07 nM.
To `CC[C@H](C)[C@H](NC(=O)[C@@H]1CCCN1C(=O)CNC(=O)[C@H](Cc1ccccc1)NC(=O)[C@H](CC(N)=O)NC(=O)[C@H](CC(N)=O)NC(=O)[C@H](CO)NC(=O)[C@H](CO)NC(=O)[C@H](Cc1c[nH]cn1)NC(=O)[C@H](Cc1c[nH]cn1)NC(=O)[C@H](CC(C)C)NC(=O)[C@H](Cc1ccccc1)NC(=O)[C@H](CC(N)=O)NC(=O)[C@H](C)NC(=O)[C@H](CC(C)C)NC(=O)[C@H](CCCNC(=N)N)NC(=O)[C@H](CCC(N)=O)NC(=O)[C@@H](NC(=O)[C@H](C)NC(=O)[C@@H]1CSSC[C@H](NC(=O)[C@H](CCCCN)NC(=O)[C@H](CCCNC(=N)N)NC(=O)[C@H](CCCCN)NC(=O)[C@H](CCC(=O)O)NC(=O)CCCCCCCCCCCCCCCCCCC(=O)O)C(=O)N[C@@H](CC(N)=O)C(=O)N[C@@H]([C@@H](C)O)C(=O)N[C@@H](C)C(=O)N[C@@H]([C@@H](C)O)C(=O)N1)[C@@H](C)O)C(=O)N[C@@H](CC(C)C)C(=O)N1CCC[C@H]1C(=O)N1CCC[C@H]1C(=O)N[C@H](C(=O)N[C@@H](CC(N)=O)C(=O)N[C@H](C(=O)NCC(=O)N[C@@H](CO)C(=O)N[C@@H](CC(N)=O)C(=O)N[C@H](C(=O)N[C@@H](Cc1ccc(O)cc1)C(N)=O)[C@@H](C)O)C(C)C)[C@@H](C)O` [Example 9, N-alpha-[19-carboxynonadecanoyl]-Glu-Lys-Arg-[His17]-pramlintide] ({C20 diacid}-EKRKCNTATCATQRLANFLHHSSNNFGPILPPTNVGSNTY-NH2; disulfide 5-10) belongs 0.06 nM.
